In ChEMBL document CHEMBL1781971, “Discovery of 5-(arenethynyl) hetero-monocyclic derivatives as potent inhibitors of BCR-ABL including the T315I gatekeeper mutant” (Bioorg Med Chem Lett, 2011):
pIC50: −log10 of the molar value. Each block holds one compound with its values, some of them ahead of it.

Key:
cells [1] = conditions: Mus musculus, BaF3
cells [2] = conditions: Mus musculus, BaF3; remark: listed apart in the source
Description: Antiproliferative activity against mouse BA/F3 cells expressing wild type BCR-ABL

[3] = target: Tyrosine-protein kinase ABL1 (Homo sapiens, UniProt P00519)
cells [4] = conditions: Mus musculus, BaF3; remark: listed apart in the source
Description: Antiproliferative activity against BCR-ABL-negative parental mouse BA/F3 cells

[5] = target: Tyrosine-protein kinase ABL1 (Homo sapiens, UniProt P00519, T315I)
Rattus norvegicus [6] = assay: AUC in rat at 5 mg/kg, iv; type: ADME, organism-based, Plasma; set-up: dose 5 mg/kg, route intravenous; conditions: in vivo
[7] = Volume of distribution in rat at 5 mg/kg, iv; type: ADME, organism-based; set-up: dose 5 mg/kg, route intravenous; conditions: in vivo
Rattus norvegicus [8] = assay: AUC in rat at 15 mg/kg, po; type: ADME, organism-based, Plasma; set-up: dose 15 mg/kg, route oral; conditions: in vivo
[9] = Half life in rat at 5 mg/kg, iv; type: ADME, organism-based; set-up: dose 5 mg/kg, route intravenous; conditions: in vivo
[10] = Cmax in rat at 5 mg/kg, iv; type: ADME, organism-based; set-up: dose 5 mg/kg, route intravenous; conditions: in vivo
[11] = Cmax in rat at 15 mg/kg, po; type: ADME, organism-based; set-up: dose 15 mg/kg, route oral; conditions: in vivo
[12] = Plasma concentration in mouse after 6 hrs at 30 mg/kg, po; type: ADME, organism-based; set-up: dose 30 mg/kg, route oral
[13] = Half life in rat at 15 mg/kg, po; type: ADME, organism-based; set-up: dose 15 mg/kg, route oral; conditions: in vivo
[14] = Oral bioavailability in rat at 15 mg/kg; type: ADME, organism-based; conditions: in vivo
[15] = Clearance in rat at 5 mg/kg, iv; type: ADME, organism-based; set-up: dose 5 mg/kg, route intravenous; conditions: in vivo
[16] = target: Vascular endothelial growth factor receptor 2 (Homo sapiens, UniProt P35968); assay: Inhibition of human VEGFR2 using poly[Glu:Tyr] by Hotspot assay
Ephrin type-A receptor 3 = Ephrin type-A receptor 3 (Homo sapiens, UniProt P29320); assay: Inhibition of human EPHA3 using poly[Glu:Tyr] peptide substrate by Hotspot assay
[17] = target: Tyrosine-protein kinase Lyn (Homo sapiens, UniProt P07948); assay: Inhibition of human LYN using poly[Glu:Tyr] by Hotspot assay
[18] = target: Receptor-type tyrosine-protein kinase FLT3 (Homo sapiens, UniProt P36888)
[19] = Antitumor activity against mouse BA/F3 cells expressing ABL T315I mutant xenografted in mouse assessed as increase in overall survival at 30 mg/kg, po QD for 19 days relative to control; type: functional, BaF3
[20] = target: Serine/threonine-protein kinase B-raf (Homo sapiens, UniProt P15056, V600E); assay: Inhibition of human BRAF V599E mutant using MEK1 (K97R), ATP substrate by Hotspot assay
[21] = target: Macrophage colony-stimulating factor 1 receptor (Homo sapiens, UniProt P07333); assay: Inhibition of human FMS using poly[Glu:Tyr] by Hotspot assay
[22] = target: Serine/threonine-protein kinase B-raf (Homo sapiens, UniProt P15056); assay: Inhibition of human BRAF using MEK1 (K97R), ATP substrate by Hotspot assay
[23] = target: Fibroblast growth factor receptor 3 (Homo sapiens, UniProt P22607); assay: Inhibition of human FGFR3 using poly[Glu:Tyr] peptide substrate by Hotspot assay
[24] = target: Hepatocyte growth factor receptor (Homo sapiens, UniProt P08581); assay: Inhibition of human c-Met using KKKSPGEYVNIEFG peptide substrate by Hotspot assay
Ephrin type-A receptor 7 = Ephrin type-A receptor 7 (Homo sapiens, UniProt Q15375); assay: Inhibition of human EPHA7 using poly[Glu:Tyr] peptide substrate by Hotspot assay
[25] = target: Fibroblast growth factor receptor 2 (Homo sapiens, UniProt P21802); assay: Inhibition of human FGFR2 using poly[Glu:Tyr] peptide substrate by Hotspot assay
Insulin receptor = Insulin receptor (Homo sapiens, UniProt P06213); assay: Inhibition of human IR using poly[Glu:Tyr] by Hotspot assay
[26] = target: Vascular endothelial growth factor receptor 1 (Homo sapiens, UniProt P17948); assay: Inhibition of human VEGFR1 using poly[Glu:Tyr] by Hotspot assay
Aurora kinase A = Aurora kinase A (Homo sapiens, UniProt O14965); assay: Inhibition of human Aurora A using H-LRRASLG peptide substrate by Hotspot assay
[27] = target: Platelet-derived growth factor receptor alpha (Homo sapiens, UniProt P16234); assay: Inhibition of human PDGFRalpha using poly[Glu:Tyr] by Hotspot assay
[28] = target: Tyrosine-protein kinase JAK2 (Homo sapiens, UniProt O60674); assay: Inhibition of human JAK2 using poly[Glu:Tyr] by Hotspot assay
[29] = target: Proto-oncogene tyrosine-protein kinase Src (Homo sapiens, UniProt P12931); assay: Inhibition of human Src using poly[Glu:Tyr] by Hotspot assay
[30] = target: Fibroblast growth factor receptor 4 (Homo sapiens, UniProt P22455); assay: Inhibition of human FGFR4 using poly[Glu:Tyr] peptide substrate by Hotspot assay
[31] = target: Cyclin-dependent kinase 2/cyclin E1 (Homo sapiens, UniProt P24941); assay: Inhibition of human CDK2/Cyclin E using Histone H1 substrate by Hotspot assay; type: protein-complex assay
[32] = target: Tyrosine-protein kinase JAK3 (Homo sapiens, UniProt P52333); assay: Inhibition of human JAK3 using GEEEEYFELVKKKK peptide substrate by Hotspot assay
[33] = target: Fibroblast growth factor receptor 1 (Homo sapiens, UniProt P11362); assay: Inhibition of human FGFR1 using KKKSPGEYVNIEFG peptide substrate by Hotspot assay
[34] = target: Mast/stem cell growth factor receptor Kit (Homo sapiens, UniProt P10721); assay: Inhibition of human c-Kit using poly[Glu:Tyr] by Hotspot assay
Ephrin type-A receptor 2 = Ephrin type-A receptor 2 (Homo sapiens, UniProt P29317); assay: Inhibition of human EPHA2 using poly[Glu:Tyr] peptide substrate by Hotspot assay
[35] = target: Tyrosine-protein kinase JAK1 (Homo sapiens, UniProt P23458); assay: Inhibition of human JAK1 using poly[Glu:Tyr] by Hotspot assay
Angiopoietin-1 receptor = Angiopoietin-1 receptor (Homo sapiens, UniProt Q02763); assay: Inhibition of human Tie2/TEK using poly[Glu:Tyr] by Hotspot assay

Chain of Insulin receptor (P06213 28-758 limits assumed): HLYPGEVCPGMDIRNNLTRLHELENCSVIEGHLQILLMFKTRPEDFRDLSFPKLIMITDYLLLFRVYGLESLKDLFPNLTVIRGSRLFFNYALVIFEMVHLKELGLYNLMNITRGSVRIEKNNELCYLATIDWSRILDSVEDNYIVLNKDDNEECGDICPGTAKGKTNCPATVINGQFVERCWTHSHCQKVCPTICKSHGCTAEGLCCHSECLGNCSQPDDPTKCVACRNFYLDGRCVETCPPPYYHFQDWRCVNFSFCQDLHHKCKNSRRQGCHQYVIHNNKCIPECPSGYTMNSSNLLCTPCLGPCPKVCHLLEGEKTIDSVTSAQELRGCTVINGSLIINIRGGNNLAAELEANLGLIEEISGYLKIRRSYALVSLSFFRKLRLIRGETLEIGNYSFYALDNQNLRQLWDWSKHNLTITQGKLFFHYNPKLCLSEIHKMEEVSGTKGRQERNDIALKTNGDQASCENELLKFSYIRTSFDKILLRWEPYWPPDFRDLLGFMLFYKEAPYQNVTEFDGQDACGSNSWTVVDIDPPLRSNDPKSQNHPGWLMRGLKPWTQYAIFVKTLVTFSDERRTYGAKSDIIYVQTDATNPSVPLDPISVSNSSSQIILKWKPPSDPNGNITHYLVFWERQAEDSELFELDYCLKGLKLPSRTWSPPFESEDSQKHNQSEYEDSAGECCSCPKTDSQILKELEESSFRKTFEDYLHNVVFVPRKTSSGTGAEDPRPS
Chain of Insulin receptor (P06213 763-1382 limits assumed): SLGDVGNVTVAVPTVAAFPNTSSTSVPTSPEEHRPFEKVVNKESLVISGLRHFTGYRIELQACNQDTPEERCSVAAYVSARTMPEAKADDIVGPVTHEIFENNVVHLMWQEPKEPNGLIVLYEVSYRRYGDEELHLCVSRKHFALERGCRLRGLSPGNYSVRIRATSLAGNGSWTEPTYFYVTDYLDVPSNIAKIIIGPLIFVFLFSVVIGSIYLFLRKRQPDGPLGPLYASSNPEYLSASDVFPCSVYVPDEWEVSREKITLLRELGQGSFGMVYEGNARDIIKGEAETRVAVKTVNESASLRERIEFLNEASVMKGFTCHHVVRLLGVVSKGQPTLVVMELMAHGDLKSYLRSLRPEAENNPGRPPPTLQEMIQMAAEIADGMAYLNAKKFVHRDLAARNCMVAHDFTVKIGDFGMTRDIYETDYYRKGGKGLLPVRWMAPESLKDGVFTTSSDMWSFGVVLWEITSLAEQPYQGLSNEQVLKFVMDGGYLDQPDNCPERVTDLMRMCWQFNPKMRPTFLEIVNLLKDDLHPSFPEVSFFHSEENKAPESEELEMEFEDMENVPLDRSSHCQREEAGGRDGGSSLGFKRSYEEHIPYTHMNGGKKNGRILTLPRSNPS
Chain of Fibroblast growth factor receptor 2 (P21802 whole entry): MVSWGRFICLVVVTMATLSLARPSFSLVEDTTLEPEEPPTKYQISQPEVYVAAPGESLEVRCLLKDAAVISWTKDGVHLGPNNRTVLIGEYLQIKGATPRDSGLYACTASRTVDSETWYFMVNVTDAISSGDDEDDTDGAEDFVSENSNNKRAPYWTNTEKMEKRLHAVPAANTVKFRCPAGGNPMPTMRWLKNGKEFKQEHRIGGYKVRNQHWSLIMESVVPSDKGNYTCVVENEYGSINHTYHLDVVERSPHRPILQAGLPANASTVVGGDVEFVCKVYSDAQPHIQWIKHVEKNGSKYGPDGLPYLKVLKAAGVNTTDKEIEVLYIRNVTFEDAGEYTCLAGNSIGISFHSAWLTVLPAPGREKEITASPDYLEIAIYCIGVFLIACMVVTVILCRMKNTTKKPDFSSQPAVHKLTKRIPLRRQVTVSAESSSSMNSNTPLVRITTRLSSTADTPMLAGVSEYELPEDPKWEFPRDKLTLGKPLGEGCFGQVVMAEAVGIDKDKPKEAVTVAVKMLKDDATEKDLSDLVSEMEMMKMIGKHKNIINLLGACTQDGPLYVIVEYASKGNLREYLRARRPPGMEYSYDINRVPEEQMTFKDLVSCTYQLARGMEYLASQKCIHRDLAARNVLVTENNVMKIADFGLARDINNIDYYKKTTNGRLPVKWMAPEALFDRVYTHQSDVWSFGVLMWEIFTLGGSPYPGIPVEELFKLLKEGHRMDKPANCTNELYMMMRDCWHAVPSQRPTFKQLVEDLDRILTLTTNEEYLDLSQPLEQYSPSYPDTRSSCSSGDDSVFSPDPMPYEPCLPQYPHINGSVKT
Chain of Mast/stem cell growth factor receptor Kit (P10721 whole entry): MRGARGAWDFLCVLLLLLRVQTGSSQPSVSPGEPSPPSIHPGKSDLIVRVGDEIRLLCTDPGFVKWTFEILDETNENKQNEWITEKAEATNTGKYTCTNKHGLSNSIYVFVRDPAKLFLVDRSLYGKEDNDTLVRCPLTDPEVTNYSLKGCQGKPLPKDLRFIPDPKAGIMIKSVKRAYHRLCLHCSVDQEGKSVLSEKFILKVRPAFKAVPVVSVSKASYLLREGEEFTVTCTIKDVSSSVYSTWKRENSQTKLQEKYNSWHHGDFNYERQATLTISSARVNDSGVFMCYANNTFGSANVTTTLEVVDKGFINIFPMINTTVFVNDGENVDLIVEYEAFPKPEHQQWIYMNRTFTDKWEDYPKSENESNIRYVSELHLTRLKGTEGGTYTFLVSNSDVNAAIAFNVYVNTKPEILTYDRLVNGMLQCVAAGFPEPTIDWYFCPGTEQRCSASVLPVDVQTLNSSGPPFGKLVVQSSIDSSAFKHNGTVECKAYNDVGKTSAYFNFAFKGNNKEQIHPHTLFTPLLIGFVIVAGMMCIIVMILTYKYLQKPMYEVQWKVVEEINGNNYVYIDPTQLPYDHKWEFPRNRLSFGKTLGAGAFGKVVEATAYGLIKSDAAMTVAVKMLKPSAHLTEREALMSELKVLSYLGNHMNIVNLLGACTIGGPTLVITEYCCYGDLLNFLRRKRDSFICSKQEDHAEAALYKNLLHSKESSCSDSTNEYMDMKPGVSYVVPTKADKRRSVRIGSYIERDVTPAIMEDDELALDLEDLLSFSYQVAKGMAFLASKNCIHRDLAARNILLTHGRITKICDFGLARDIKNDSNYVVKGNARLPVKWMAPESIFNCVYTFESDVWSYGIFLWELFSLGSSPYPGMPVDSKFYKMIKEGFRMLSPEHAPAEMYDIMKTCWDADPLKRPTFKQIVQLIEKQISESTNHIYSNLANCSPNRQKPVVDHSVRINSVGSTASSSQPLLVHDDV
Chain of Fibroblast growth factor receptor 3 (P22607 whole entry): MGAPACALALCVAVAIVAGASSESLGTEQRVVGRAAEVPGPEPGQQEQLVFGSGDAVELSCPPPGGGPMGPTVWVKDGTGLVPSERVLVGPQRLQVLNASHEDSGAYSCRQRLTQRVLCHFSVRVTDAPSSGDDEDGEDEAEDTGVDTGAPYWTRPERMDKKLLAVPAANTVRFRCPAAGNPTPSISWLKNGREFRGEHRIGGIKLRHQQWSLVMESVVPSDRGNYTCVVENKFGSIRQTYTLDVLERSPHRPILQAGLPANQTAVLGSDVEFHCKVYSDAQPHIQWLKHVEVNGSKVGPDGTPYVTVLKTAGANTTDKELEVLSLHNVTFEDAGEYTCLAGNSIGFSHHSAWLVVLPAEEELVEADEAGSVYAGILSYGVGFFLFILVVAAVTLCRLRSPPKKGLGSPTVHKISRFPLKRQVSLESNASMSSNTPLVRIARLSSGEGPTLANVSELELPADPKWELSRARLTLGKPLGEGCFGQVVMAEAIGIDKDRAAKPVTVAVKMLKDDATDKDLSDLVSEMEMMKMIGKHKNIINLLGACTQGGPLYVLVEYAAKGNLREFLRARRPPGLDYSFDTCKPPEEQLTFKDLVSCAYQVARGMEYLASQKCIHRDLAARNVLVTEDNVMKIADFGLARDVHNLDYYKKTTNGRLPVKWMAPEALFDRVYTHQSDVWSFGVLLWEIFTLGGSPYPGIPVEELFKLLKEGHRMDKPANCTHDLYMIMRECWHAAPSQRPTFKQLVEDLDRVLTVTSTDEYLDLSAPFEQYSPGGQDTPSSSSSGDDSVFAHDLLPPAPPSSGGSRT
Chain of Platelet-derived growth factor receptor alpha (P16234 whole entry): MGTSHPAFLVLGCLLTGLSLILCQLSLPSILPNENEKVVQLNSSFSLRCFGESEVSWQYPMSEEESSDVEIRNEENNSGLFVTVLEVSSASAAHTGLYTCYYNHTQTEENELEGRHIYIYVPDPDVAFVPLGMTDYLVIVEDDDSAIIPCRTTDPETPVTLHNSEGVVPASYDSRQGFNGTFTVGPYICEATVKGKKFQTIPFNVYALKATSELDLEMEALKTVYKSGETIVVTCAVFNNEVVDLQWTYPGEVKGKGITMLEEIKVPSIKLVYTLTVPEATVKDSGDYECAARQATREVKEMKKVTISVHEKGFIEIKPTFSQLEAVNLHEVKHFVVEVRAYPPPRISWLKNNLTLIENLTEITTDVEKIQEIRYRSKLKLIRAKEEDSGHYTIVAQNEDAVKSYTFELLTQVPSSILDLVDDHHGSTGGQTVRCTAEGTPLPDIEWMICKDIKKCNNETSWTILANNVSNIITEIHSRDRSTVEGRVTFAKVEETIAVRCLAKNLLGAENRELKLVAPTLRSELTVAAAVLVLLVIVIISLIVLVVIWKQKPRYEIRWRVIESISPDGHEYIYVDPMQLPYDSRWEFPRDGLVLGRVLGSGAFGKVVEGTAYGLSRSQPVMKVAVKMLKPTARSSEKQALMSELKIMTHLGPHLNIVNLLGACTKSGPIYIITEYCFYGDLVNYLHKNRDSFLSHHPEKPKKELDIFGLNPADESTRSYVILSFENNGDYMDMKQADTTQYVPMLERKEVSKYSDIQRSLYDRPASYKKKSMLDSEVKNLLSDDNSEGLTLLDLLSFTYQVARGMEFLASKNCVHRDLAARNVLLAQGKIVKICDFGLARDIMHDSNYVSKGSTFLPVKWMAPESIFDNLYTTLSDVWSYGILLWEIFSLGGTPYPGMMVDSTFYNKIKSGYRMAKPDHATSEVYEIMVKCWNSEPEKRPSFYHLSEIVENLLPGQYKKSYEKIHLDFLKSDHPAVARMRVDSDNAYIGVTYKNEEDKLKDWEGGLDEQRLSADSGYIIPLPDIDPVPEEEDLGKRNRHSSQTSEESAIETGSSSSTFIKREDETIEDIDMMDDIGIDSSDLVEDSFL

pIC50 (cells [1]): 7.16
pIC50 (cells [2]): 8.07
pIC50 [3]: 7.14
pIC50 (cells [4]): 5.75
pIC50 [5]: 6.44
Compound: Cc1ccc(C(=O)Nc2ccc(CN3CCN(C)CC3)c(C(F)(F)F)c2)cc1C#Cc1cnc(C)n1C

AUC (Rattus norvegicus [6]): 5445 h/ng/mL
Vd [7]: 9.3 L/kg
AUC (Rattus norvegicus [8]): 4144 h/ng/mL
pIC50 (cells [1]): 8.12
pIC50 (cells [2]): 8.89
half-life [9]: 7 h
Cmax [10]: 627 ng/mL
Cmax [11]: 258 ng/mL
concentration at 6 h [12]: 358 ng/mL
pIC50 [3]: 8.44
half-life [13]: 8 h
bioavailability [14]: 25.3%
pIC50 (cells [4]): 6.10
pIC50 [5]: 7.60
clearance [15]: 15.3 mL/min/kg
Compound: Cc1ccc(C(=O)Nc2ccc(CN3CCN(C)CC3)c(C(F)(F)F)c2)cc1C#Cc1cnc(C(N)=O)n1C

pIC50 (cells [1]): 8.40
pIC50 (cells [2]): 8.77
pIC50 [3]: 7.76
pIC50 (cells [4]): 5.80
pIC50 [5]: 7.74
Compound: CNC(=O)c1ncc(C#Cc2cc(C(=O)Nc3ccc(CN4CCN(C)CC4)c(C(F)(F)F)c3)ccc2C)n1C

pIC50 (cells [1]): 7.19
pIC50 (cells [2]): 8.41
pIC50 [3]: 7.26
pIC50 (cells [4]): 5.80
pIC50 [5]: 6.52
Compound: Cc1ccc(C(=O)Nc2ccc(CN3CCN(C)CC3)c(C(F)(F)F)c2)cc1C#Cc1cnc(C(=O)NCCO)n1C

Compound: CNC(=O)c1ncc(C#Cc2cc(C(=O)Nc3ccc(CN4CCN(CCO)CC4)c(C(F)(F)F)c3)ccc2C)n1C
AUC (Rattus norvegicus [6]): 970 h/ng/mL
pIC50 [16]: 8.64
pIC50 (Ephrin type-A receptor 3): 8.92
pIC50 [17]: > 9.82
Vd [7]: 8.2 L/kg
pIC50 [18]: 8.70
Activity [19]: 130%
pIC50 [20]: 7.59
pIC50 [21]: 8.14
AUC (Rattus norvegicus [8]): 6586 h/ng/mL
pIC50 [22]: 7.70
pIC50 (cells [1]): 8.08
pIC50 [23]: 7.98
pIC50 [24]: < 5.52
pIC50 (cells [2]): 8.89
pIC50 (Ephrin type-A receptor 7): 8.38
pIC50 [25]: 8.82
pIC50 (Insulin receptor): < 5.52
pIC50 [26]: 8.28
pIC50 (Aurora kinase A): < 5.52
pIC50 [27]: 8.89
pIC50 [28]: 6.27
half-life [9]: 5.6 h
Cmax [10]: 200 ng/mL
Cmax [11]: 344 ng/mL
concentration at 6 h [12]: 1150 ng/mL
pIC50 [29]: 8.40
pIC50 [30]: 7.47
half-life [13]: 10 h
pIC50 [31]: 8.19
bioavailability [14]: 45%
pIC50 [32]: 7.24
pIC50 [33]: 8.74
pIC50 (cells [4]): 5.51
pIC50 [34]: < 5.52
pIC50 (Ephrin type-A receptor 2): 9.22
pIC50 [35]: 7.26
clearance [15]: 17.2 mL/min/kg
pIC50 (Angiopoietin-1 receptor): 8.66

pIC50 (cells [1]): 7.97
pIC50 (cells [2]): 9.19
pIC50 [3]: 8.32
pIC50 (cells [4]): 5.62
pIC50 [5]: 6.85
Compound: COCCN1CCN(Cc2ccc(NC(=O)c3ccc(C)c(C#Cc4cnc(C(N)=O)n4C)c3)cc2C(F)(F)F)CC1

pIC50 (cells [1]): 7.19
pIC50 (cells [2]): 8.12
pIC50 [3]: 8.37
pIC50 (cells [4]): 5.00
pIC50 [5]: 6.97
Compound: Cc1ccc(C(=O)Nc2ccc(CN3CCN(CC(=O)O)CC3)c(C(F)(F)F)c2)cc1C#Cc1cnc(C(N)=O)n1C

pIC50 (cells [1]): 7.76
pIC50 (cells [2]): 8.55
pIC50 [3]: 7.54
pIC50 (cells [4]): 5.90
pIC50 [5]: 6.86
Compound: Cc1ccc(C(=O)Nc2ccc(CN3CCN(C)CC3)c(C(F)(F)F)c2)cc1C#Cc1cnc(N)s1

pIC50 (cells [1]): 8.26
pIC50 (cells [2]): 9.17
pIC50 [3]: 7.92
pIC50 (cells [4]): 7.01
pIC50 [5]: 7.57
Compound: CC(=O)Nc1ncc(C#Cc2cc(C(=O)Nc3ccc(CN4CCN(C)CC4)c(C(F)(F)F)c3)ccc2C)s1
